# Test results reported in publication PMC7038234, “Screening of Natural Extracts for Inhibitors against Japanese Encephalitis Virus Infection” (Antimicrobial Agents and Chemotherapy, 2020).
# Read-outs that look alike come from different tables or passages of the source.
# How the values were obtained:
# [1] = system: JEV; conditions: cited from earlier work
# [2] = Cytotoxicity / cell viability on Vero cells; conditions: African green monkey
# [3] = system: JEV strain SA14; test: qRT-PCR of JEV RNA levels in Vero cell lysates; assay type: cell-based, Japanese encephalitis virus; conditions: Vero cells, high-, middle- and low-dose-treated groups
# [4] = system: JEV SA14 replicon; test: JEV reporter replicon assay (Renilla luciferase) in Huh-7 cells; conditions: for JEV RNA synthesis (replicon luciferase signal): 24 h postelectroporation
# [5] = system: JEV strain SA14; test: Immunofluorescence staining assay (IFA), SA14 infection of Vero cells
# [6] = system: JEV AT31; test: Addition of sodium and potassium assay (plaque assay); conditions: Vero cells, AT31, NaCl 0-100 mM, KCl 0-25 mM
# [7] = system: JEV; assay type: cell-based, Japanese encephalitis virus
# [8] = system: JEV strains AT31 and SA14; test: Plaque assay of virus production in culture supernatants (Vero, Huh-7, U251 cells); assay type: cell-based, Japanese encephalitis virus
# [9] = system: JEV (AT31); test: Antiviral efficacy in JEV-infected BALB/c mice; assay type: in vivo, BALB/c mouse
# Procedure: Adult male BALB/c mice (4 weeks) were randomly divided into three groups: the JEV-infected and vehicle (0.75% DMSO in normal saline)-treated group, the JEV-infected and ouabain-treated group, and the ouabain-treated group. For infection, mice were infected intraperitoneally (i.p.) with a dose of 1 × 10^6 PFU JEV (AT31). The infected mice were i.p. administered with ouabain at 3 mg/kg of body weight or a vehicle control every day for 21 consecutive days. Mice were sacrificed at day 1, 3, 7, 10, or 21, depending on the experimental design. Blood, spleen, and brain samples were collected for plaque assay, qRT-PCR, and histopathology investigation (Vectra ss; PerkinElmer).
# The viral burden was determined by plaque assay. The samples were weighed and homogenized in 300 μl of PBS. The homogenates were clarified by centrifugation (2,000 × g at 4°C) for 15 min and then diluted serially prior to infection of BHK-21 cells. The viral titer was adjusted for sample volume and tissue weight to calculate the titer as PFU/g.
# Tissue samples and blood from JEV-infected mice were extracted with the RNAprep pure tissue kit (Tiangen; catalog no. DP431) and RNAprep pure blood kit (Tiangen; catalog no. DP433), respectively. JEV RNA levels were determined by one-step qRT-PCR on ABI Real-Time PCR systems using standard cycling conditions. The viral burden was calculated on a standard curve produced using serial 10-fold dilutions of plasmids carrying the infectious clone.
# For histopathology investigation, brain tissues were collected from the mice and fixed in 4% paraformaldehyde; the hematoxylin-eosin staining protocol was followed for tissue staining.
# [10] = JEV-infected BALB/c mice, ouabain 3 mg/kg i.p. daily, 21 days
smiles,measurement,setting,value
CCCCCCN(CCCCCC)C(=O)Cc1c(-c2ccc(F)cc2)[nH]c2ccccc12 [FGIN-1-27],JEV infection,[1],reduced the JEV infection in vitro
COC1=CC23CCCN2CCc2cc4c(cc2C3C1O)OCO4 (centres unmarked) [cephalotaxlen],CC50,[2],> 100 µM
C[C@H]1O[C@@H](O[C@H]2[C@@H](O)C[C@H](O[C@H]3[C@@H](O)C[C@H](O[C@H]4CC[C@@]5(C)[C@H](CC[C@@H]6[C@@H]5C[C@@H](O)[C@]5(C)[C@@H](C7=CC(=O)OC7)CC[C@]65O)C4)O[C@@H]3C)O[C@@H]2C)C[C@H](O)[C@@H]1O [digoxin],attenuated RNA levels of the SA14 strain,[3],above 40%
same,initial translation of replicon RNA,[4],neither drug inhibited
same,JEV RNA synthesis (replicon luciferase signal),[4],inhibited JEV RNA synthesis in a dose-dependent manner
same,CC50,[2],> 100 µM
same,SA14 reproduction,[5]; digoxin 392 nM,greatly inhibited
same,dependence of JEV-inhibiting effect on extracellular NaCl and KCl,[6],positively correlated with extracellular NaCl but inversely correlated with KCl
same,adaptive (drug-resistant) mutant,[7],no adaptive mutant was found
same,reduction of AT31 and SA14 virus production,"[8]; Vero cells, plaque assay, highest concentration",4 to 6 log units
Cc1cc(O)c2c(c1)C(=O)c1cc(O)cc(O)c1C2=O [emodin],CC50,[2],> 100 µM
O[C@H]1[C@H]2c3cc4c(cc3CN3CCC(=C[C@@H]1O)[C@H]23)OCO4 [lycorine],CC50,[2],> 100 µM
COC(=O)C1=C(C)NC(C)=C(C(=O)OCCN2CCN(C(c3ccccc3)c3ccccc3)CC2)C1c1cccc([N+](=O)[O-])c1 (centres unmarked) [manidipine],JEV infection,[1],inhibited JEV infection in vitro and in vivo
C[C@@H]1O[C@@H](O[C@H]2C[C@@H](O)[C@]3(CO)[C@H]4[C@H](O)C[C@]5(C)[C@@H](C6=CC(=O)OC6)CC[C@]5(O)[C@@H]4CC[C@]3(O)C2)[C@H](O)[C@H](O)[C@H]1O [ouabain],attenuated RNA levels of the SA14 strain,[3],above 40%
same,animals survived,[9]; [10],8 out of 14
same,survival rate,[9]; [10],~60%
same,histopathological changes in brain,"[9]; day 7 postinfection, meningitis, perivascular cuffing, vacuolar degeneration",remarkably alleviated
same,plaques from brain on day 21 postinfection,"[9]; day 21 postinfection, plaque assay",no plaques formed
same,viral load in brain (plaque assay),"[9]; days 7, 10 and 21 postinfection, versus untreated infected mice",significantly reduced viral load
same,effect on viral titers in the brain at the preclinical stage,"[9]; qRT-PCR, days 1 and 3 postinfection",little effect
same,effect on decreasing viral titers in the blood and spleen,"[9]; qRT-PCR, earlier time points (days 1 and 3)",little effect
same,behavior of mice treated with ouabain alone,"[9]; uninfected BALB/c mice, ouabain 3 mg/kg i.p. daily",little abnormal behavior
same,initial translation of replicon RNA,[4],neither drug inhibited
same,JEV RNA synthesis (replicon luciferase signal),[4],inhibited JEV RNA synthesis in a dose-dependent manner
same,CC50,[2],> 100 µM
same,SA14 reproduction,[5]; ouabain 98 nM,greatly inhibited
same,dependence of JEV-inhibiting effect on extracellular NaCl and KCl,[6],positively correlated with extracellular NaCl but inversely correlated with KCl
same,adaptive (drug-resistant) mutant,[7],no adaptive mutant was found
same,reduction of AT31 and SA14 virus production,[8],4 to 6 log units
Oc1cc(O)c2c(c1)OC(c1ccc(O)c(O)c1)C(OC1(c3ccc(O)c(O)c3)Oc3cc(O)cc(O)c3C(O)C1O)C2 (centres unmarked) [procyanidin],CC50,[2],> 100 µM
COc1cc2c(c(OC)c1OC)-c1c(cc(OC)c(OC)c1OC)C[C@H](C)[C@H](C)C2 [schizandrin A],CC50,[2],100 µM
COc1cc2c(c(OC)c1OC)-c1c(cc3c(c1OC)OCO3)CC(C)C(C)C2 (centres unmarked) [schizandrin B],CC50,[2],> 100 µM
